Source: patent US6361998B1, “Efficient culture of stem cells for the production of hemoglobin” (Hemosol Inc., priority 1999, dated 2002)

Key:
CD34^+ enriched cells [1] = assay: Expansion and differentiation of CD34+ enriched cells with SA added to EPSFM+LDL; format: cell-based, human
Procedure: CD34^+ enriched cells were isolated and cultured as described in Example 1. Succinylacetone (SA), a heme synthesis inhibitor, was added to EPSFM+LDL at concentrations of 25 to 250 uM at the initiation of culture. Results are depicted in Table 4 and FIGS. 4 to 6. The addition of 50 uM SA to EPSFM+LDL increased cell expansion 8-fold when compared to controls without SA (FIG. 4).

CD34^+ enriched cells [2] = assay: Addition of SA and hemin to EPSFM+LDL culture of CD34+ enriched cells, Hb content; format: cell-based, human; settings: at culture termination; SA 25 uM; hemin (if any) 25 uM at initiation of culture
Procedure: CD34^+ enriched cells were isolated and cultured in EPSFM+LDL as described in Example 1. In some samples, SA was added to EPSFM+LDL to a final concentration of 25 uM. In some instances, hemin was added to the SA containing cultures to a final hemin concentration of 25 uM. Hemin was added to some SA containing cultures at the initiation of culture and to others after 15 days of culture. The addition of SA, an inhibitor of heme synthesis, to EPSFM+LDL increased the fold expansion of cells obtained but reduced the percentage of GlyA^+ cells and the Hb content of these cells (Table 10). The low hemoglobin content was ameliorated by the addition of hemin to EPSFM+LDL+SA at the initiation of culture. However, as the percentage of GlyA^+ cells was decreased in this instance, the total amount of Hb per culture is similar to that observed with culture in EPSFM+LDL alone. The addition of hemin after 15 days of culture, instead of at culture initiation, further increased the fold expansion without reducing the percentage of GlyA^+ cells. Unexpectedly, the amount of hemoglobin per cell increased to approximately that obtained with EPSFM+LDL.

[3] = tested on: CD34^+ enriched cells from human umbilical cord blood LDMNC; assay: Expansion and differentiation of CD34+ enriched cells in serum-free suspension culture; format: cell-based; settings: hemin added to defined culture medium (25 uM, FIG. 3)
Procedure: CD34^+ cells were enriched from human umbilical cord blood LDMNC by lineage depletion of cells expressing CD3, CD14, CD16, CD19, CD24, CD56, CD66b and glycophorin A (GlyA) to enrich lin^− cells. The viability of CD34^+ cells pre- and post-enrichment was determined by trypan-blue dye exclusion and cells were characterized for CD34 and CD45 co-expression by standard flow cytometry methods (see Table 2, FIG. 1).
CD34^+ cells were cultured at an initial seeding density of 1-2×10^4 cells/ml in EPSFM+LDL with the composition described in Table 1B. […]
At the end of 30 days in culture cells were fully differentiated erythroid cells with 57% of the cells staining positively with benzidine and 85% of the cells expressing the erythroid-specific membrane glycoprotein glycophorin A (GlyA). […] The amount of hemoglobin per cell was determined to be 5.2 pg using Western blot analysis. […]
CD34^+ enriched cells were cultured for 7 to 11 days, as described in Example 1. […] Fewer than 2% of the cells expressed CD34, and hematopoietic progenitors were present at a frequency of 21 BFU-E, 33 CFU-E and 25 CFU-GM per 1×10^5 cells as detected in methylcellulose colony forming assay. […] Field strength, capacitance, and pulse width were optimized to achieve an average transfection efficiency of approximately 20% as measured at 24 hours post-electroporation.

BaF3 cells [4] = settings: cited from earlier work
BaF3 cells [5] = assay: Cytokine-dependency growth of BaF3 cells transfected with human EpoR constructs; format: cell-based, murine; settings: for growth of BaF3 transfectants: no exogenous IL-3
Procedure: The functionality of the EpoR(t439; R154C) was tested and compared to the wild-type EpoR (wtEpoR) and EpoR(t439) using the BaF3 cell line. The cDNAs encoding these three different EpoRs were subcloned into the pcDNA3.1 expression vector, which provides high-level constitutive expression of proteins in mammalian cells and also contains the neomycin gene for the selection of stable transfectant with G418. The vector constructs were electroporated into BaF3 cells and stable transfectants were isolated in the presence of 600 ug/ml G418. BaF3 transfectants were maintained in RPMI-1640 with 10% FBS and 5% WEHI conditioned medium (a source of murine IL-3), except during the cytokine-dependency studies when cells were maintained in RPMI-1640 plus 10% FBS, along with the indicated cytokines. Growth of the different EpoR transfectants in the presence of either murine IL-3 or two different doses of Epo was compared to that of the parental (non-transfected) BaF3 cells (FIG. 7). […] All three EpoR constructs encode functional receptors that allow expansion of the BaF3 cells in the presence of Epo without exogenous IL-3.

CC(=O)CC(=O)CCC(=O)O [SA, Succinylacetone]
Total fold expansion (n = 3) (CD34^+ enriched cells [1]; 25 uM SA added to EPSFM + LDL): 6.36 × 10^6 | Total fold expansion (n = 3) (CD34^+ enriched cells [1]; 50 uM SA added to EPSFM + LDL): 2.89 × 10^7 | increase in cell expansion compared to controls without SA (CD34^+ enriched cells [1]; 50 uM SA in EPSFM+LDL): 8 fold | suppression of BZ staining and GlyA expression (CD34^+ enriched cells [1]; 250 uM SA): Maximum suppression | Total fold expansion (n = 3) (CD34^+ enriched cells [1]; 250 uM SA added to EPSFM + LDL): 6.77 × 10^6 | percentages of BZ+ and GlyA+ cells after SA removal (CD34^+ enriched cells [1]; SA removed after at least 20 days of culture, by the following passage): increased significantly | erythroid differentiation (percentages of BZ+ and GlyA+ cells) (CD34^+ enriched cells [1]; increasing amounts of SA (25 to 250 uM)): reduced erythroid differentiation | % GlyA positive cells (CD34^+ enriched cells [2]): 74% | Hb per GlyA^+ cell (CD34^+ enriched cells [2]): 0.95 pg/cell | Total Hb per culture (CD34^+ enriched cells [2]): 0.03 g | Total number of GlyA^+ cells (CD34^+ enriched cells [2]): 2.9 × 10^10 | Total number of cells (CD34^+ enriched cells [2]): 3.9 × 10^10

hemin
effect of hemin addition on Hb content, number of GlyA cells and BZ positive cells [3]: did not substantially increase

B1: EpoR(R129C): murine EpoR with Arg129 replaced by Cys, constitutively active (literature) (protein, UniProt P14753 25-507, looked up, variant R129C)
Erythropoietin receptor: APSPSLPDPKFESKAALLASRGSEELLCFTQRLEDLVCFWEEAASSGMDFNYSFSYQLEGESRKSCSLHQAPTVRGSVRFWCSLPTADTSSFVPLELQVTEASGSPRYHRIIHINEVVLLDAPAGLLACRAEEGSHVVLRWLPPPGAPMTTHIRYEVDVSAGNRAGGTQRVEVLEGRTECVLSNLRGGTRYTFAVRARMAEPSFSGFWSAWSEPASLLTASDLDPLILTLSLILVLISLLLTVLALLSHRRTLQQKIWPGIPSPESEFEGLFTTHKGNFQLWLLQRDGCLWWSPGSSFPEDPPAHLEVLSEPRWAVTQAGDPGADDEGPLLEPVGSEHAQDTYLVLDKWLLPRTPCSENLSGPGGSVDPVTMDEASETSSCPSDLASKPRPEGTSPSSFEYTILDPSSQLLCPRALPPELPPTPPHLKYLYLVVSDSGISTDYSSGGSQGVHGDSSDGPYSHPYENSLVPDSEPLHPGYVACS
cytokine dependence of BaF3 cell growth (BaF3 cells [4]; over-expression of murine EpoR(R129C)): permits cytokine-independent growth of BaF3 cells

B2: truncated EpoR: murine EpoR with C-terminal 42 amino acids replaced with Ala-Leu (Yoshimura 1990) (protein, listed as Homo sapiens)
chain: MDHLGASLWPQVGSLCLLLAGAAWAPPPNLPDPKFESKAALLAARGPEELLCFTERLEDLVCFWEEAASAGVGPGNYSFSYQLEDEPWKLCRLHQAPTARGAVRFWCSLPTADTSSFVPLELRVTAASGAPRYHRVIHINEVVLLDAPVGLVARLADESGHVVLRWLPPPETPMTSHIRYEVDVSAGNGAGSVQRVEILEGRTECVLSNLRGRTRYTFAVRARMAEPSFGGFWSAWSEPVSLLTPSDLDPLILTLSLILVVILVLLTVLALLSHRRALKQKIWPGIPSPESEFEGLFTTHKGNFQLWLYQNDGCLWWSPCTPFTEDPPASLEVLSERCWGTMQAVEPGTDDEGPLLEPVGSEHAQDTYLVLDKWLLPRNPPSEDLPGPGGSVDIVAMDEGSEASSCSSALASKPSPEGASAASFEYTILDPSSQLLRP
responsiveness to Epo relative to the wild-type EpoR (BaF3 cells [4]; murine EpoR, C-terminal 42 amino acids replaced with Ala-Leu, expressed in BaF3 cells): 3-5 times

B3: EpoR(t439): human EpoR truncated at Trp439; hypersensitive to Epo (SEQ ID NOS 4 and 5) (protein, listed as Homo sapiens)
chain: B2 chain
growth of BaF3 transfectants (BaF3 cells [5]; 0.02 U/ml Epo): grew equally well | growth of BaF3 transfectants (BaF3 cells [5]; 2 U/ml Epo): grew equally well | expansion of BaF3 cells (BaF3 cells [5]; absence of exogenous cytokines): did not support cell expansion | functionality of the EpoR (BaF3 cells [5]; conclusion from BaF3 growth): functional and hypersensitive to Epo

B4: EpoR: full length wild-type human erythropoietin receptor (protein)
chain: APPPNLPDPKFESKAALLAARGPEELLCFTERLEDLVCFWEEAASAGVGPGNYSFSYQLEDEPWKLCRLHQAPTARGAVRFWCSLPTADTSSFVPLELRVTAASGAPRYHRVIHINEVVLLDAPVGLVARLADESGHVVLRWLPPPETPMTSHIRYEVDVSAGNGAGSVQRVEILEGRTECVLSNLRGRTRYTFAVRARMAEPSFGGFWSAWSEPVSLLTPSDLDPLILTLSLILVVILVLLTVLALLSHRRALKQKIWPGIPSPESEFEGLFTTHKGNFQLWLYQNDGCLWWSPCTPFTEDPPASLEVLSERCWGTMQAVEPGTDDEGPLLEPVGSEHAQDTYLVLDKWLLPRNPPSEDLPGPGGSVDIVAMDEGSEASSCSSALASKPSPEGASAASFEYTILDPSSQLLRPWTLCPELPPTPPHLKYLYLVVSDSGISTDYSSGDSQGAQGGLSDGPYSNPYENSLIPAAEPLPPSYVACS
growth of BaF3 transfectants (BaF3 cells [5]; 0.02 U/ml Epo): did not grow | growth of BaF3 transfectants (BaF3 cells [5]; 2 U/ml Epo): grew in the presence of 2 U/ml Epo alone
